Measurements published in paper PMC6990405, “Synthesis and Structure–Activity relationship of 1-(5-isoquinolinesulfonyl)piperazine analogues as inhibitors of Mycobacterium tuberculosis IMPDH” (European Journal of Medicinal Chemistry, 2019).
Values after ≈ are worked out from the molar mass of the structure shown. Read-outs that look alike come from different tables or passages of the source.

Legend:
[1] = molecular target: T1, Mtb IMPDH (Mycobacterium tuberculosis, UniProt P9WKI7); assay: IMPDH biochemical assay (inhibition of Mtb GuaB2); conditions: Mtb IMPDH (GuaB2) enzyme
T1 construct: made in house
T1 sequence (P9WKI7 whole entry, looked up): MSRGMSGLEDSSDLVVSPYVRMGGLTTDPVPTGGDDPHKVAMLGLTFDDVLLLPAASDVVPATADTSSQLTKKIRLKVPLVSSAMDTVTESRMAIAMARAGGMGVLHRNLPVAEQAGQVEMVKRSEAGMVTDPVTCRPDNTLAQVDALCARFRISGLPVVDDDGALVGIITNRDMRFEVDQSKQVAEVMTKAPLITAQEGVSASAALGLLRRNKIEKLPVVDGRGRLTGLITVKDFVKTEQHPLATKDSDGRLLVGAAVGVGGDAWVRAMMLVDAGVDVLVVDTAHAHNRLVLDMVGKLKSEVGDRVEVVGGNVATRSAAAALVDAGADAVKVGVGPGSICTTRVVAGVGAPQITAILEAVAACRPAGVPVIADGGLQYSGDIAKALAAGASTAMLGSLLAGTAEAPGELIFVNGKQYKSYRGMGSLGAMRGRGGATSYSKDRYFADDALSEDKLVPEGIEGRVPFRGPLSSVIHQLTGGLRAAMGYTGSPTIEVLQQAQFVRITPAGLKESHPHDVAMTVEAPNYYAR

[2] = test system: wild-type M. tuberculosis strain H37Rv; assay: microbe, parasite or virus in culture; type: cell-based
[3] = Mycobacterium tuberculosis, H37RV, wild-type M. tuberculosis H37Rv, read-out: MIC90 against WT
[4] = Mycobacterium tuberculosis, H37RV, read-out: MIC90 against WT, wild-type M. tuberculosis H37Rv
[5] = wild-type M. tuberculosis H37Rv, read-out: MIC90 against WT

| SMILES | IC50 [1] [nM] | MIC90 [2, 3] [µM] | MIC90 [2, 4] [µM] | MIC90 [2, 5] [µM] |
| --- | --- | --- | --- | --- |
| O=C(C1CCCCC1)N1CCN(S(=O)(=O)c2cccc3cnccc23)CC1 [Compound 1, Cyclohexyl[4-(isoquinoline-5-sulfonyl)piperazin-1-yl]methanone] | 100 ± 10 | 2 (≈ 0.775 µg/mL) | – | – |
| O=C(NCCNS(=O)(=O)c1cccc2cnccc12)C1CCCCC1 [Compound 2, N-{2-[(isoquinoline-5-sulfonyl)amino]ethyl}cyclohexanecarboxamide] | 500 ± 20 | – | 50 (≈ 18.1 µg/mL) | – |
| CC1CN(S(=O)(=O)c2cccc3cnccc23)CCN1C(=O)C1CCCCC1 (stereo not drawn) [Compound 3, Cyclohexyl[4-(isoquinoline-5-sulfonyl)-2-methylpiperazin-1-yl]methanone] | > 100000 | 100 (≈ 40.2 µg/mL) | – | – |
| O=C(NC1CCN(S(=O)(=O)c2cccc3cnccc23)CC1)C1CCCCC1 [Compound 4, N-[1-(isoquinoline-5-sulfonyl)piperidin-4-yl]cyclohexanecarboxamide] | 9700 ± 300 | > 100 | – | – |
| O=C(C1CCCCC1)N1CCC(NS(=O)(=O)c2cccc3cnccc23)CC1 [Compound 5, N-[1-(cyclohexanecarbonyl)piperidin-4-yl]isoquinoline-5-sulfonamide] | 14700 ± 300 | > 100 | – | – |
| Cc1cc2c(S(=O)(=O)N3CCN(C(=O)C4CCCCC4)CC3)cccc2cn1 [Compound 6, Cyclohexyl[4-(3-methylisoquinoline-5-sulfonyl)piperazin-1-yl]methanone] | > 100000 | – | 100 (≈ 40.2 µg/mL) | >100 |
| O=C(C1CCCCC1)N1CCN(S(=O)(=O)c2cccc3ccccc23)CC1 [Compound 7, Cyclohexyl[4-(naphthalene-1-sulfonyl)piperazin-1-yl]methanone] | 3000 ± 100 | > 100 | – | – |
| O=C(C1CCCCC1)N1CCN(S(=O)(=O)c2ccc3ccccc3c2)CC1 [Compound 8, Cyclohexyl[4-(naphthalene-2-sulfonyl)piperazin-1-yl]methanone] | 1600 ± 100 | > 100 | – | – |
| O=C(NCCNS(=O)(=O)c1cccc2cnccc12)C1CC1 [Compound 9, N-{2-[(isoquinoline-5-sulfonyl)amino]ethyl}cyclopropanecarboxamide] | 6900 ± 200 | 100 (≈ 31.9 µg/mL) | – | – |
| O=C(NCCNS(=O)(=O)c1cccc2cnccc12)C1CCC1 [Compound 10, N-{2-[(isoquinoline-5-sulfonyl)amino]ethyl}cyclobutanecarboxamide] | 2700 ± 100 | 100 (≈ 33.3 µg/mL) | – | – |
| CC(C)(C)C(=O)N1CCN(S(=O)(=O)c2cccc3cnccc23)CC1 [Compound 11, 1-[4-(isoquinoline-5-sulfonyl)piperazin-1-yl]-2,2-dimethylpropan-1-one] | 2800 ± 200 | 100 (≈ 36.1 µg/mL) | – | – |
| CC1(C(=O)N2CCN(S(=O)(=O)c3cccc4cnccc34)CC2)CCCCC1 [Compound 12, [4-(isoquinoline-5-sulfonyl)piperazin-1-yl](1-methylcyclohexyl)methanone] | 2400 ± 10 | 250 (≈ 100 µg/mL) | – | – |
| CC1CCCCC1C(=O)N1CCN(S(=O)(=O)c2cccc3cnccc23)CC1 (stereo not drawn) [Compound 13, [4-(isoquinoline-5-sulfonyl)piperazin-1-yl](2-methylcyclohexyl)methanone] | 84 | 31.2 (≈ 12.5 µg/mL) | – | – |
| O=C(C1CCCCCC1)N1CCN(S(=O)(=O)c2cccc3cnccc23)CC1 [Compound 14, Cycloheptyl[4-(isoquinoline-5-sulfonyl)piperazin-1-yl]methanone] | 830 ± 40 | 31.2 (≈ 12.5 µg/mL) | – | – |
| O=C(c1ccccc1)N1CCN(S(=O)(=O)c2cccc3cnccc23)CC1 [Compound 15, [4-(isoquinoline-5-sulfonyl)piperazin-1-yl](phenyl)methanone] | 8100 ± 100 | > 100 | – | >100 |
| N#Cc1cccc(C(=O)N2CCN(S(=O)(=O)c3cccc4cnccc34)CC2)c1 [Compound 16, 3-[4-(isoquinoline-5-sulfonyl)piperazine-1-carbonyl]benzonitrile] | 8600 ± 500 | 25 (≈ 10.2 µg/mL) | – | – |
| N#Cc1ccc(C(=O)N2CCN(S(=O)(=O)c3cccc4cnccc34)CC2)cc1 [Compound 17, 4-[4-(isoquinoline-5-sulfonyl)piperazine-1-carbonyl]benzonitrile] | 16500 ± 500 | 100 (≈ 40.6 µg/mL) | – | – |
| O=C(c1cccc([N+](=O)[O-])c1)N1CCN(S(=O)(=O)c2cccc3cnccc23)CC1 [Compound 18, [4-(isoquinoline-5-sulfonyl)piperazin-1-yl](3-nitrophenyl)methanone] | 1100 ± 100 | 12.5 (≈ 5.33 µg/mL) | – | – |
| O=C(c1cc([N+](=O)[O-])cc([N+](=O)[O-])c1)N1CCN(S(=O)(=O)c2cccc3cnccc23)CC1 [Compound 19, [4-(isoquinoline-5-sulfonyl)piperazin-1-yl](3,5-dinitrophenyl)methanone] | 1400 ± 10 | 12.5 (≈ 5.89 µg/mL) | – | – |

| SMILES | IC50 [1] [nM] | MIC90 [2, 3] [µM] | MIC90 [2, 4] [µM] | MIC90 [2, 5] [µM] |
| --- | --- | --- | --- | --- |
| COc1cc(C(=O)N2CCN(S(=O)(=O)c3cccc4cnccc34)CC2)cc(OC)c1OC [Compound 20, [4-(isoquinoline-5-sulfonyl)piperazin-1-yl](3,4,5-trimethoxyphenyl)methanone] | 12000 ± 500 | 15.6 (≈ 7.36 µg/mL) | – | – |
| O=C(NCCNS(=O)(=O)c1cccc2cnccc12)c1cc([N+](=O)[O-])cc([N+](=O)[O-])c1 [Compound 21, N-{2-[(isoquinoline-5-sulfonyl)amino]ethyl}-3,5-dinitrobenzamide] | 300 ± 20 | 15.6 (≈ 6.95 µg/mL) | – | – |
| O=C(CC1CCCCC1)N1CCN(S(=O)(=O)c2cccc3cnccc23)CC1 [Compound 22, 2-Cyclohexyl-1-(4-(isoquinolin-5-ylsulfonyl)piperazin-1-yl)ethan-1-one] | 230 ± 20 | 31.2 (≈ 12.5 µg/mL) | – | – |
| O=C(CC1CCC2(CC1)OCCO2)N1CCN(S(=O)(=O)c2cccc3cnccc23)CC1 [Compound 23, 2-(1,4-dioxaspiro[4.5]decan-8-yl)-1-[4-(isoquinoline-5-sulfonyl)piperazin-1-yl]ethan-1-one] | 3300 ± 200 | 250 (≈ 115 µg/mL) | – | – |
| N#Cc1cccc(CC(=O)N2CCN(S(=O)(=O)c3cccc4cnccc34)CC2)c1 [Compound 24, 3-{2-[4-(isoquinoline-5-sulfonyl)piperazin-1-yl]-2-oxoethyl}benzonitrile] | 5960 ± 200 | 125 (≈ 52.6 µg/mL) | – | – |
| O=C(Cc1cccc(O)c1)N1CCN(S(=O)(=O)c2cccc3cnccc23)CC1 [Compound 25, 2-(3-hydroxyphenyl)-1-[4-(isoquinoline-5-sulfonyl)piperazin-1-yl]ethan-1-one] | 4000 ± 200 | 125 (≈ 51.4 µg/mL) | – | – |
| COc1cccc(CC(=O)N2CCN(S(=O)(=O)c3cccc4cnccc34)CC2)c1 [Compound 26, 1-[4-(isoquinoline-5-sulfonyl)piperazin-1-yl]-2-(3-methoxyphenyl)ethan-1-one] | 2600 ± 200 | 250 (≈ 106 µg/mL) | – | – |
| COc1ccc(CC(=O)N2CCN(S(=O)(=O)c3cccc4cnccc34)CC2)c(OC)c1 [Compound 27, 1-[4-(isoquinoline-5-sulfonyl)piperazin-1-yl]-2-(2,4-dimethoxyphenyl)ethan-1-one] | 1980 ± 100 | 250 (≈ 114 µg/mL) | – | – |
| Cc1cccc(CC(=O)N2CCN(S(=O)(=O)c3cccc4cnccc34)CC2)c1 [Compound 28, 1-(4-(isoquinolin-5-ylsulfonyl)piperazin-1-yl)-2-(m-tolyl)ethan-1-one] | 11500 ± 300 | 250 (≈ 102 µg/mL) | – | – |
| O=C(Cc1ccc(F)cc1)N1CCN(S(=O)(=O)c2cccc3cnccc23)CC1 [Compound 29, 2-(4-fluorophenyl)-1-(4-(isoquinolin-5-ylsulfonyl)piperazin-1-yl)ethan-1-one] | 680 ± 50 | 25 (≈ 10.3 µg/mL) | – | – |
| O=C(Cc1ccc([N+](=O)[O-])cc1)N1CCN(S(=O)(=O)c2cccc3cnccc23)CC1 [Compound 30, 1-(4-(isoquinolin-5-ylsulfonyl)piperazin-1-yl)-2-(4-nitrophenyl)ethan-1-one] | 5300 ± 200 | 250 (≈ 110 µg/mL) | – | – |
| N#Cc1cccc(NC(=O)N2CCN(S(=O)(=O)c3cccc4cnccc34)CC2)c1 [Compound 31, N-(3-cyanophenyl)-4-(isoquinolin-5-ylsulfonyl)piperazine-1-carboxamide] | 150 ± 30 | 15.6 (≈ 6.58 µg/mL) | – | – |
| O=C(Nc1cccc(C(F)(F)F)c1)N1CCN(S(=O)(=O)c2cccc3cnccc23)CC1 [Compound 32, 4-(isoquinolin-5-ylsulfonyl)-N-(3-(trifluoromethyl)phenyl)piperazine-1-carboxamide] | 80 ± 5 | 62.5 (≈ 29 µg/mL) | – | – |
| O=C(Nc1ccc(Cl)cc1)N1CCN(S(=O)(=O)c2cccc3cnccc23)CC1 [Compound 33, N-(4-chlorophenyl)-4-(isoquinolin-5-ylsulfonyl)piperazine-1-carboxamide] | 15000 ± 500 | 250 (≈ 108 µg/mL) | – | – |
| O=C(Nc1ccc(Cl)c(C(F)(F)F)c1)N1CCN(S(=O)(=O)c2cccc3cnccc23)CC1 [Compound 34, N-(4-chloro-3-(trifluoromethyl)phenyl)-4-(isoquinolin-5-ylsulfonyl)piperazine-1-carboxamide] | 160 ± 100 | 25 (≈ 12.5 µg/mL) | – | – |
| O=C(Nc1ccc(Cl)c([N+](=O)[O-])c1)N1CCN(S(=O)(=O)c2cccc3cnccc23)CC1 [Compound 35, N-(4-chloro-3-nitrophenyl)-4-(isoquinolin-5-ylsulfonyl)piperazine-1-carboxamide] | 5600 ± 200 | 12.5 (≈ 5.95 µg/mL) | – | – |
| O=C(Nc1ccc(F)c(Cl)c1)N1CCN(S(=O)(=O)c2cccc3cnccc23)CC1 [Compound 36, N-(3-chloro-4-fluorophenyl)-4-(isoquinolin-5-ylsulfonyl)piperazine-1-carboxamide] | 42 ± 2 | 31.2 (≈ 14 µg/mL) | – | – |
| O=C(Nc1cccc(Cl)c1Cl)N1CCN(S(=O)(=O)c2cccc3cnccc23)CC1 [Compound 37, N-(2,3-dichlorophenyl)-4-(isoquinolin-5-ylsulfonyl)piperazine-1-carboxamide] | 900 ± 60 | 125 (≈ 58.2 µg/mL) | – | – |
| Cc1ccc(NC(=O)N2CCN(S(=O)(=O)c3cccc4cnccc34)CC2)cc1Cl [Compound 38, N-(3-chloro-4-methylphenyl)-4-(isoquinolin-5-ylsulfonyl)piperazine-1-carboxamide] | 1600 ± 200 | 100 (≈ 44.5 µg/mL) | – | – |
